Experimental findings from US5120641A (Daiichi Pure Chemicals Co., Ltd., priority 1989, dated 1992) are described below.

Assay [1] deals with T1, serotonin uptake sites ([^3 H]6-nitroquipazine binding, rat brain membranes) (Rattus norvegicus, UniProt P31652).
T1 construct: from tissue; host or cells: rat brain minus cerebellum, pons and medulla oblongata; washed membrane homogenate
Kind of assay: Inhibition of [^3 H]6-nitroquipazine binding by several drugs. The procedure: (§1) Rats were killed by decapitation and the brains (minus cerebellum, pons medulla and oblongata) were rapidly removed. The brain tissue was homogenized in 50 volumes of ice-cold buffer (50 mM Tris-HCl, 120 mM NaCl, 5 mM KCl, pH 7.4) with a Kinematica Polytron homogenizer at setting 5 for 30 seconds. The homogenate was centrifuged at 48,000×g for 10 minutes. The resulting pellet was resuspended in 50 volumes of ice-cold buffer and recentrifuged. The final pellet was resuspended in the same 50 volumes of buffer.
(§2) Aliquots of membrane suspension were incubated with [^3 H]6-nitroquipazine (30-1,200 pM) at 22° C. for 2 hours for the equilibrium saturation. After the addition of 4 ml of ice-cold buffer the homogenates were rapidly filtered through Whatman GF/C filters pretreated with 0.05% polyethleneimine. The filters were washed with ice-cold buffer (3×5 ml). The radioactivity trapped by the filters was determined by a liquid scintillation counter.
Ten different concentrations of the drugs were used for each determination. Aliquots of membrane suspension were incubated with [^3 H]6-nitroquipazine at 22° C. for 2 hours. The specific binding of [^3 H]6-nitroquipazine was determined as described in Example 2.
Drug IC50 values were defined by means of the iterative non-linear least-squares method.

The target in assay [2] is T2, serotonin uptake sites (rat cerebral cortical membranes) (Rattus norvegicus, UniProt P31652).
T2 construct: The cerebral cortex of rat brain was rapidly dissected; from tissue; host or cells: rat cerebral cortex membranes (p-chloroamphetamine-treated rats)
Kind of assay: [^3 H]6-nitroquipazine binding to cerebral cortical membranes after serotonin neuronal lesions with p-chloroamphetamine. Conditions: for Bmax / Kd: cerebral cortex, mean ± S.E.M. As for the experimental part: as §2
(§3) Rats were injected i.p. three times (24 hours interval) with p-chloroamphetamine (2.5 mg/kg), and were decapitated 7 days after final injection. The cerebral cortex of rat brain was rapidly dissected, and [^3 H]6-nitroquipazine binding to cerebral cortical membranes was examined as described previously.

A further assay concerns rat cerebral cortex. Put plainly: Serotonin and 5-hydroxyindoleacetic acid content in cerebral cortex of p-chloroamphetamine lesioned rats. It counts as in vivo. As for the experimental part:
as §3

Assay [3] concerns the target serotonin uptake sites (rat brain regions) (Rattus norvegicus, UniProt P31652). Kind of assay: Regional distribution of [^3 H]6-nitroquipazine binding in rat brain. The procedure: as §2
Rats were killed by decapitation and the brains were dissected (cerebral cortex, striatum, hippocampus, hypothalamus, midbrain, cerebellum, pons medulla and oblongata) on ice. [^3 H]6-Nitroquipazine binding was estimated as described previously.

Assay [4] addresses T3, serotonin uptake sites (rat brain membranes) (Rattus norvegicus, UniProt P31652).
T3 construct: from tissue; host or cells: rat brain minus cerebellum, pons and medulla oblongata; washed membrane homogenate
Kind of assay: [^3 H]6-Nitroquipazine saturation binding to rat brain membranes (Scatchard analysis). As for the experimental part:
as §1, §2

Setting [5] is: […] [^3 H]6-nitroquipazine, 22° C., 2 hours.

SMILES strings stand for the structures. “Also recorded” adds a separate entry of the source. Like-named read-outs stand apart in the source and are kept apart here.

T2 sequence (P31652 whole entry): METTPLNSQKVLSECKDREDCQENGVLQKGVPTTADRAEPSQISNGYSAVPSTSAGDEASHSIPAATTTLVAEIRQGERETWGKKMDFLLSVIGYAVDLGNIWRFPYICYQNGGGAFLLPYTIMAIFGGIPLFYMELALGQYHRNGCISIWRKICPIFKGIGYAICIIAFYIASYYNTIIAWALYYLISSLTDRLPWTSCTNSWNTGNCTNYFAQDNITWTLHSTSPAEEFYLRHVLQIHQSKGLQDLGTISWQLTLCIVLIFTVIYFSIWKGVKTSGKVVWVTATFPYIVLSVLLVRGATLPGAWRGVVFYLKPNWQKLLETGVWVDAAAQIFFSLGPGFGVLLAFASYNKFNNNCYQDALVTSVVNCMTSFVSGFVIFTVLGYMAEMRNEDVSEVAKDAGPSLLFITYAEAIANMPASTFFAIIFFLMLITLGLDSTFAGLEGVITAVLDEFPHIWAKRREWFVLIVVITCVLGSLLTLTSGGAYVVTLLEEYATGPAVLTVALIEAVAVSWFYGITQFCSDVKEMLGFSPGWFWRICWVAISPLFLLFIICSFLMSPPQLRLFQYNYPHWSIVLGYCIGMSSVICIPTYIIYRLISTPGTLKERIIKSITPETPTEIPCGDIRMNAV
serotonin uptake sites (rat brain regions), sequence (P31652 whole entry): as above
T1 sequence (P31652 whole entry): as above
T3 sequence (P31652 whole entry): as above

For orientation: Ki means the dissociation constant of the complex between target and ligand, obtained from inhibition or displacement. On to `c1ccc2c(CCC3CCNCC3)c[nH]c2c1` [Indalpine], for which the “Ki” value in assay [1] (setting [5]) was “low nanomolar ranges”; in assay [1] (read-out: Ki) it was 1.93 nM.

Consider `CC(N)Cc1ccc(Cl)cc1` (centres unmarked) [p-chloroamphetamine], for which, in assay [2] (p-chloroamphetamine 2.5 mg/kg i.p. three times, 7 days after final injection), the “decrease of [^3 H]6-nitroquipazine binding to cortical membranes of lesioned rats compared to controls” value came out at 72%. In assay [2] (p-chloroamphetamine 2.5 mg/kg i.p. three times, compared to controls), the “Kd change in lesioned rats” value was “slightly decreased”. Further, the “endogenous serotonin levels and [^3 H]6-nitroquipazine binding” value with rat cerebral cortex (destruction of serotonin neuron terminals by p-chloroamphetamine) is “decreases in endogenous serotonin levels and [^3 H]6-nitroquipazine binding”. Moreover, in the assay on rat cerebral cortex (lesioned rats, p-chloroamphetamine 2.5 mg/kg i.p. three times, control 0.2123±0.038), the “content of 5-hydroxyindoleacetic acid in the cerebral cortex” value was 0.0541±0.008 ng/mg tissue. Besides, the “content of serotonin in the cerebral cortex” value in the assay with rat cerebral cortex (lesioned rats, p-chloroamphetamine 2.5 mg/kg i.p. three times, control 0.3362±0.037) is on record as 0.129±0.037 ng/mg tissue.

With `O=[N+]([O-])c1ccc2nc(N3CCNCC3)ccc2c1` [6-Nitroquipazine, 6-nitro-2-piperazinylquinoline], the results for the “Ki” value in assay [1] (setting [5]) and in assay [1] (read-out: Ki) were “low nanomolar ranges” and 0.128 nM, respectively.

As to `O=[N+]([O-])c1ccc2nc(N3CCNCC3)ccc2c1` [[^3 H]6-nitroquipazine, Tritium-labeled 6-nitro-2-piperazinylquinoline], the Bmax was found to be 616.0 ± 64.4 fmole/mg protein in assay [2] (control rats); 170.5 ± 44.8 fmole/mg protein in assay [2] (rats treated with p-chloroamphetamine (2.5 mg/kg i.p. x3), ***P < 0.001 vs control); 91.2 ± 4.0 fmole/mg protein in assay [3] (Cerebellum); 565.6 ± 28.3 fmole/mg protein in assay [3] (Cortex); 612.2 ± 35.4 fmole/mg protein in assay [3] (Hippocampus); 1211.8 ± 33.2 fmole/mg protein in assay [3] (Hypothalamus). Moreover, the Bmax came out at 598.2 ± 25.6 fmole/mg protein in assay [3] (Medulla oblongata), 1107.8 ± 30.2 fmole/mg protein in assay [3] (Midbrain) and 807.4 ± 41.5 fmole/mg protein in assay [3] (Striatum). Also, the Kd came to 0.141 nM in assay [2] (control rats); 0.108 ± 0.01 nM in assay [2] (rats treated with p-chloroamphetamine (2.5 mg/kg i.p. x3), *P < 0.01 vs control); 0.093 nM in assay [4] (rat brain membranes, 22° C., 2 hours, 30-1,200 pM radioligand, Scatchard analysis, read-out: apparent equilibrium dissociation constant (Kd)). The “specific binding by brain region” value in assay [3] (rat brain regions) is “highest in the hypothalamus and midbrain; also recorded: moderately high in the striatum, hippocampus, medulla oblongata and cerebral cortex; also recorded: lowest in the cerebellum”. Besides, the “binding to rat brain membranes” value in assay [4] (FIG. 1) was “bound with high affinity to rat brain membranes in a saturable and reversible fashion”. Also, the “specific binding as share of total binding” value in assay [4] (at equilibrium, 110 pM [^3 H]6-nitroquipazine, non-specific: 1 μM paroxetine) was 95%. Moreover, the “potency compared with [^3 H]imipramine and [^3 H]paroxetine” value in assay [4] (no comparative data given) was “more potent than [^3 H]imipramine and [^3 H]paroxetine”. Further, the “maximal number of binding sites (Bmax)” value in assay [4] (rat brain membranes, 22° C., 2 hours, Scatchard analysis) was found to be 832 fmol/mg protein.
